{"source": "patent US8895605B2", "about": "“Pyrrolidine-substituted flavones as radio-sensitizers for use in the treatment of cancer” (Piramal Enterprises Limited, priority 2009, dated 2014)", "test_system": "FaDu (human head and neck cancer) cells", "test": "In-vitro MTS assay (cytotoxicity, Compound A alone and with radiation)", "assay_type": "cell-based", "settings": "for cytotoxicity at 0.7 µM / cytotoxicity at 1 µM / cytotoxicity at 2 µM: FaDu, no radiation; for cytotoxicity at 0.7 µM: 0.7 μM Compound A (IC30) alone; for cytotoxicity at 1 µM: 1 μM Compound A (IC50) alone; for cytotoxicity at 2 µM: 2 μM Compound A (IC70) alone; for Combination index (CI): CompuSyn", "excerpt": "The assay has been carried out according to the method described in Molecular Cancer Therapeutics, 2007, 6(9); the disclosure of which is incorporated by reference for the teaching of the assay. MTS (Promega, Cat #G1111) is a tetrazolium compound ((3-(4,5-dimethylthiazol-2-yl)-5-(3-carboxymethoxyphenyl)-2-(4-sulphophenyl)-2H-tetrazolium, inner salt; MTS) for use in colorimetric assays for determining the number of viable cells in proliferation, cytotoxicity or chemosensitivity assays. This is used with an electron coupling reagent PMS (Phenazine methosulfate). MTS is bioreduced by cells into a formazan that is soluble in tissue culture medium. The absorbance of the formazan at 490 nm can be measured directly from 96 well assay plates without additional processing. Dehydrogenase enzymes found in metabolically active cells accomplish the conversion of MTS into the aqueous soluble formazan. The quantity of formazan product as measured at 490 nm absorbance is directly proportional to the number of living cells in culture. Before testing the effect of Compound A on radiosensitivity of FaDu (human head and neck cancer, ATCC, USA) cells, the dose dependent cytotoxicity of Compound A alone was determined using MTS assay. Tumor cells were incubated in the presence of various concentrations of Compound A for 48 h and subjected to MTS assay. […] The Fa-Du (human head and neck cancer, ATCC, USA) cells were seeded at density of 1500 cells/well in 180 μL of MEM (minimum essential medium) in tissue culture grade 96-well plate and allowed to grow for 24 h in humidified 5% CO2 incubator at 37±1° C. Three identical groups of cells were made. After a time interval of 24 h after seeding, different wells of the first and second group of cells were irradiated at room temperature at dose of 2, 4, 6, 8 and 10 Gy respectively. The second group was further treated 24 h after irradiation (i.e. on the third day of the experiment) with IC30 concentration of Compound A. The third group was treated on the third day of the experiment, with IC30 concentration of Compound A alone. In order to obtain IC30 concentration (0.7 μM) of Compound A in any well, 20 μL of a stock solution of concentration 10×IC30, (i.e. 7 μM) was added to the well (dissolved first in DMSO and then in cell medium, final DMSO concentration should not exceed 0.5%) and diluted to 200 μL with MEM. The wells were incubated for 48 h and 96 h respectively, in humidified 5% CO2 incubator at 37±1° C. After completion of 48 h and 96 h respectively, the medium was removed from all wells and fresh MEM was added and the plates were incubated further for additional 4-6 days or for total of 8-10 days from the start of the experiment. At the end of the experiment, the medium was removed from all wells and 20 μL of MTS (2 mg/ml in phosphate buffer saline, pH 6-6.5 and filter sterilized) and 1 μL of PMS (3 mM in PBS, pH 7.3 and filter sterilized) was added per well along with the cell medium to adjust the total volume to 200 μL/well. The plate was incubated for 2-4 h in humidified 5% CO2 incubator at 37±1° C. The plate was read at 490 nm on Spectrophotometer (SpectraMax, Molecular Devices, USA), and the percentage cytotoxicity using SoftMax, software for SpectraMax was calculated. The above experiment was repeated using IC50 and IC70 concentrations of Compound A. The enhancement in radiation effects in FaDu cell line as evaluated using the CompuSyn software by Chou and Talalay, described in Pharmacological Reviews, 2006, 58, 621-681, which is incorporated herewith by reference. Combination index (CI) is used to evaluate if a combination is additive, synergistic or antagonistic. CI<1 is synergistic, CI=1 is additive and CI>1 is antagonistic. For example, at a treatment of 48 h with a concentration of IC70 of Compound A, the combination was synergistic (CI=0.7) at all the doses of radiation. The combination index in both the cases ie. […]", "key": {"[1]": {"settings": "Compound A alone, 48 h incubation, FaDu cells"}, "[2]": {"settings": "Homo sapiens, 48 h, read-out: % cytotoxicity 48 h after Compound A treatment"}, "[3]": {"settings": "Homo sapiens, 96 h, read-out: % cytotoxicity 96 h after Compound A treatment"}}, "note": "Like-named read-outs stand apart in the source and are kept apart here."}
{"smiles": "CN1CC[C@@H](c2c(O)cc(O)c3c(=O)cc(-c4ccccc4Cl)oc23)[C@@H]1CO.Cl", "note": "[Compound A, (+)-trans-2-(2-Chlorophenyl)-5,7-dihydroxy-8-(2-hydroxymethyl-1-methyl-pyrrolidin-3-yl)-chromen-4-one hydrochloride]", "values": [{"measurement": "% cytotoxicity 48 h after Compound A treatment", "setting": "2 Gy radiation, then 0.7 μM Compound A (IC30) 24 h after radiation, 48 h", "value": 23, "unit": "%"}, {"measurement": "% cytotoxicity 96 h after Compound A treatment", "setting": "2 Gy radiation, then 0.7 μM Compound A (IC30) 24 h after radiation, 96 h", "value": 15, "unit": "%"}, {"measurement": "% cytotoxicity 48 h after Compound A treatment", "setting": "2 Gy radiation, then 1 μM Compound A (IC50) 24 h after radiation, 48 h", "value": 35, "unit": "%"}, {"measurement": "% cytotoxicity 48 h after Compound A treatment", "setting": "2 Gy radiation, then 2 μM Compound A (IC70) 24 h after radiation, 48 h", "value": 79, "unit": "%"}, {"measurement": "% cytotoxicity 96 h after Compound A treatment", "setting": "2 Gy radiation, then 2 μM Compound A (IC70) 24 h after radiation, 96 h", "value": 98, "unit": "%"}, {"measurement": "% cytotoxicity 48 h after Compound A treatment", "setting": "4 Gy radiation, then 0.7 μM Compound A (IC30) 24 h after radiation, 48 h", "value": 35, "unit": "%"}, {"measurement": "% cytotoxicity 96 h after Compound A treatment", "setting": "4 Gy radiation, then 0.7 μM Compound A (IC30) 24 h after radiation, 96 h", "value": 31, "unit": "%"}, {"measurement": "% cytotoxicity 48 h after Compound A treatment", "setting": "4 Gy radiation, then 1 μM Compound A (IC50) 24 h after radiation, 48 h", "value": 50, "unit": "%"}, {"measurement": "% cytotoxicity 96 h after Compound A treatment", "setting": "4 Gy radiation, then 1 μM Compound A (IC50) 24 h after radiation, 96 h", "value": 37, "unit": "%"}, {"measurement": "% cytotoxicity 48 h after Compound A treatment", "setting": "4 Gy radiation, then 2 μM Compound A (IC70) 24 h after radiation, 48 h", "value": 86, "unit": "%"}, {"measurement": "% cytotoxicity 96 h after Compound A treatment", "setting": "4 Gy radiation, then 2 μM Compound A (IC70) 24 h after radiation, 96 h", "value": 96, "unit": "%"}, {"measurement": "% cytotoxicity 48 h after Compound A treatment", "setting": "6 Gy radiation, then 0.7 μM Compound A (IC30) 24 h after radiation, 48 h", "value": 64, "unit": "%"}, {"measurement": "% cytotoxicity 96 h after Compound A treatment", "setting": "6 Gy radiation, then 0.7 μM Compound A (IC30) 24 h after radiation, 96 h", "value": 60, "unit": "%"}, {"measurement": "% cytotoxicity 48 h after Compound A treatment", "setting": "6 Gy radiation, then 1 μM Compound A (IC50) 24 h after radiation, 48 h", "value": 73, "unit": "%"}, {"measurement": "% cytotoxicity 96 h after Compound A treatment", "setting": "6 Gy radiation, then 1 μM Compound A (IC50) 24 h after radiation, 96 h", "value": 77, "unit": "%"}, {"measurement": "% cytotoxicity 48 h after Compound A treatment", "setting": "6 Gy radiation, then 2 μM Compound A (IC70) 24 h after radiation, 48 h", "value": 89, "unit": "%"}, {"measurement": "% cytotoxicity 96 h after Compound A treatment", "setting": "6 Gy radiation, then 2 μM Compound A (IC70) 24 h after radiation, 96 h", "value": 96, "unit": "%"}, {"measurement": "% cytotoxicity 48 h after Compound A treatment", "setting": "8 Gy radiation, then 0.7 μM Compound A (IC30) 24 h after radiation, 48 h", "value": 79, "unit": "%"}, {"measurement": "% cytotoxicity 96 h after Compound A treatment", "setting": "8 Gy radiation, then 0.7 μM Compound A (IC30) 24 h after radiation, 96 h", "value": 69, "unit": "%"}, {"measurement": "% cytotoxicity 48 h after Compound A treatment", "setting": "8 Gy radiation, then 1 μM Compound A (IC50) 24 h after radiation, 48 h", "value": 85, "unit": "%"}, {"measurement": "% cytotoxicity 96 h after Compound A treatment", "setting": "8 Gy radiation, then 1 μM Compound A (IC50) 24 h after radiation, 96 h", "value": 84, "unit": "%"}, {"measurement": "% cytotoxicity 48 h after Compound A treatment", "setting": "8 Gy radiation, then 2 μM Compound A (IC70) 24 h after radiation, 48 h", "value": 91, "unit": "%"}, {"measurement": "% cytotoxicity 96 h after Compound A treatment", "setting": "8 Gy radiation, then 2 μM Compound A (IC70) 24 h after radiation, 96 h", "value": 95, "unit": "%"}, {"measurement": "% cytotoxicity 48 h after Compound A treatment", "setting": "10 Gy radiation, then 0.7 μM Compound A (IC30) 24 h after radiation, 48 h", "value": 80, "unit": "%"}, {"measurement": "% cytotoxicity 96 h after Compound A treatment", "setting": "10 Gy radiation, then 0.7 μM Compound A (IC30) 24 h after radiation, 96 h", "value": 85, "unit": "%"}, {"measurement": "% cytotoxicity 48 h after Compound A treatment", "setting": "10 Gy radiation, then 1 μM Compound A (IC50) 24 h after radiation, 48 h", "value": 86, "unit": "%"}, {"measurement": "% cytotoxicity 96 h after Compound A treatment", "setting": "10 Gy radiation, then 1 μM Compound A (IC50) 24 h after radiation, 96 h", "value": 90, "unit": "%"}, {"measurement": "% cytotoxicity 48 h after Compound A treatment", "setting": "10 Gy radiation, then 2 μM Compound A (IC70) 24 h after radiation, 48 h", "value": 91, "unit": "%"}, {"measurement": "% cytotoxicity 96 h after Compound A treatment", "setting": "10 Gy radiation, then 2 μM Compound A (IC70) 24 h after radiation, 96 h", "value": 94, "unit": "%"}, {"measurement": "IC30", "setting": "[1]", "value": 700, "unit": "nM"}, {"measurement": "IC70", "setting": "[1]", "value": 2000, "unit": "nM"}, {"measurement": "cytotoxicity at 0.7 µM", "setting": "[2]", "value": 8, "unit": "%"}, {"measurement": "cytotoxicity at 0.7 µM", "setting": "[3]", "value": 4, "unit": "%"}, {"measurement": "cytotoxicity at 1 µM", "setting": "[2]", "value": 20, "unit": "%"}, {"measurement": "cytotoxicity at 1 µM", "setting": "[3]", "value": 25, "unit": "%"}, {"measurement": "cytotoxicity at 2 µM", "setting": "[2]", "value": 66, "unit": "%"}, {"measurement": "cytotoxicity at 2 µM", "setting": "[3]", "value": 83, "unit": "%"}, {"measurement": "IC50", "setting": "Homo sapiens, Compound A alone, 48 h incubation, FaDu cells", "value": 1000, "unit": "nM"}, {"measurement": "Enhancement in radiation effects (combination class)", "setting": "radiation 6, 8 and 10 Gy followed by Compound A at IC30 for 48 h", "value": "synergistic (CI<1 is synergistic)"}, {"measurement": "Enhancement in radiation effects (combination class)", "setting": "radiation 6, 8 and 10 Gy followed by Compound A at IC50 for 48 h", "value": "synergistic (CI<1 is synergistic)"}, {"measurement": "Combination index (CI)", "setting": "radiation + Compound A at IC30, 96 h treatment, all doses of radiation", "value": 1}, {"measurement": "Combination index (CI)", "setting": "radiation + Compound A at IC50, 96 h treatment, all doses of radiation", "value": 1}, {"measurement": "Combination index (CI)", "setting": "radiation + Compound A at IC70, 48 h treatment, all doses of radiation", "value": 0.7}, {"measurement": "Combination index (CI)", "setting": "radiation + Compound A at IC70, 96 h treatment, at 2, 4 and 6 Gy", "value": "< 1"}]}
